The source made the active and inactive calls. The rule behind the calls is not given here.

The target in series [1] is Acetylcholinesterase (Homo sapiens, UniProt P22303).
Description: Inhibition of recombinant human AChE expressed in HEK293 cells using acetylthiocholine iodide as substrate preincubated for 15 mins followed by substrate addition by Ellman's method
Series [2] is described as follows: Acute toxicity in C57BL6/J mouse at 15 mg/kg, ip measured after 3 hrs. Type of series: organism-based. The conditions noted are these: in vivo.
In series [3] the test system is Mus musculus. The series is described as follows: Antialzheimer activity in APP/PS1 double mutant-transgenic C57BL6/J mouse model assessed as increase in Hmox1 gene expression at 10 mg/kg/day, ip for 4 weeks followed by compound washout and measured after 24 hrs by qPCR analysis. Type of series: functional, organism-based. On the technique in general: Quantitative PCR measures a nucleic acid by following its amplification.

The nature of series [4]: Half life in mouse liver microsomes at 5 uM by UPLC-MS/MS analysis. Type of series: ADME, Microsome. (Liver microsomes are vesicles of endoplasmic reticulum, rich in cytochrome P450 enzymes.)
Series [5] has as its system Mus musculus. As to the kind of experiment: Antialzheimer activity in APP/PS1 double mutant-transgenic C57BL6/J mouse model assessed as effect on iNOS gene expression at 10 mg/kg/day, ip for 4 weeks followed by compound washout and measured after 24 hrs by qPCR analysis. Type of series: functional, organism-based.
A short description of series [6]: Drug metabolism in human liver microsomes assessed as N-[8-[(6-chloro-1,2,3,4-tetrahydroacridin-9-yl)amino]octyl]-5-(2,5-dihydroxy-4-methoxy-phenyl)-3-hydroxy-3-methyl-pentanamide formation at 5 uM measured up to 60 mins by UPLC-MS/MS analysis. Type of series: ADME, Microsome. The following applies: 1 h.
Series [7] concerns Mus musculus. As to the kind of experiment: Antialzheimer activity in APP/PS1 double mutant-transgenic C57BL6/J mouse model assessed as reduction in oxidized protein level at 10 mg/kg/day, ip for 4 weeks followed by compound washout and measured after 24 hrs by Western blot analysis. Type of series: functional, organism-based. On the technique in general: In western blotting, separated proteins are transferred to a membrane and probed.

Series [8] is described as follows: Stability in rat liver microsomes assessed as parent compound remaining at 5 uM measured up to 60 mins by UPLC-MS/MS analysis. Type of series: ADME, Microsome. The conditions noted are these: read-out: Stabilty.
The nature of series [9]: Acute toxicity in C57BL6/J mouse assessed as ptosis at 15 mg/kg, ip measured after 5 mins. Type of series: organism-based. The conditions noted are these: in vivo.
Series [10] deals with Mus musculus. As to the kind of experiment: Antialzheimer activity in APP/PS1 double mutant-transgenic C57BL6/J mouse model assessed as increase in Adam10 gene expression at 10 mg/kg/day, ip for 4 weeks followed by compound washout and measured after 24 hrs by qPCR analysis. Type of series: functional, organism-based.
The nature of series [11]: Stability in mouse plasma assessed as parent compound remaining at 10 uM measured after 180 mins by UPLC-MS/MS analysis. Type of series: ADME, cell-free. The following applies: read-out: Stabilty.
Series [12] can be described thus: Acute toxicity in C57BL6/J mouse at 5 to 10 mg/kg, ip measured up to 24 hrs. Type of series: organism-based. The following applies: in vivo, dose 5-10 mg/kg.
For series [13], the system named is Mus musculus. The series is described as follows: Antialzheimer activity in APP/PS1 double mutant-transgenic C57BL6/J mouse model assessed as reduction in amyloid beta burden in cortex at 10 mg/kg/day, ip for 4 weeks followed by compound washout and measured after 24 hrs by hematoxylin staining based microscopic analysis. Type of series: functional, organism-based.

Series [14] is described as follows: Drug metabolism in human liver microsomes assessed as 6-chloro-1,2,3,4-tetrahydroacridin-9-amine formation at 5 uM measured up to 60 mins by UPLC-MS/MS analysis. Type of series: ADME, Microsome. The following applies: 1 h.
Series [15] in a line: Stability in mouse liver microsomes assessed as parent compound remaining at 5 uM measured up to 60 mins by UPLC-MS/MS analysis. The conditions noted are these: read-out: Stabilty. Type of series: ADME, Microsome.
The nature of series [16]: Stability in mouse plasma assessed as parent compound remaining at 10 uM measured immediately by UPLC-MS/MS analysis. Type of series: ADME, cell-free. The following applies: read-out: Stabilty.
The nature of series [17]: Drug metabolism in rat liver microsomes assessed as N-[8-[(6-chloro-1,2,3,4-tetrahydroacridin-9-yl)amino]octyl]-2-(8-methoxy-2-methyl-6,9-dioxo-1-oxaspiro[4.5]dec-7-en-2-yl)acetamide formation at 5 uM measured up to 60 mins by UPLC-MS/MS analysis. Type of series: ADME, Microsome. The conditions noted are these: 1 h.
Series [18] in a line: Drug metabolism in mouse liver microsomes assessed as N-[8-[(6-chloro-1,2,3,4-tetrahydroacridin-9-yl)amino]octyl]-2-(8-methoxy-2-methyl-6,9-dioxo-1-oxaspiro[4.5]dec-7-en-2-yl)acetamide formation at 5 uM measured up to 60 mins by UPLC-MS/MS analysis. Type of series: ADME, Microsome. The conditions noted are these: 1 h.

Chain of Acetylcholinesterase (P22303 whole entry): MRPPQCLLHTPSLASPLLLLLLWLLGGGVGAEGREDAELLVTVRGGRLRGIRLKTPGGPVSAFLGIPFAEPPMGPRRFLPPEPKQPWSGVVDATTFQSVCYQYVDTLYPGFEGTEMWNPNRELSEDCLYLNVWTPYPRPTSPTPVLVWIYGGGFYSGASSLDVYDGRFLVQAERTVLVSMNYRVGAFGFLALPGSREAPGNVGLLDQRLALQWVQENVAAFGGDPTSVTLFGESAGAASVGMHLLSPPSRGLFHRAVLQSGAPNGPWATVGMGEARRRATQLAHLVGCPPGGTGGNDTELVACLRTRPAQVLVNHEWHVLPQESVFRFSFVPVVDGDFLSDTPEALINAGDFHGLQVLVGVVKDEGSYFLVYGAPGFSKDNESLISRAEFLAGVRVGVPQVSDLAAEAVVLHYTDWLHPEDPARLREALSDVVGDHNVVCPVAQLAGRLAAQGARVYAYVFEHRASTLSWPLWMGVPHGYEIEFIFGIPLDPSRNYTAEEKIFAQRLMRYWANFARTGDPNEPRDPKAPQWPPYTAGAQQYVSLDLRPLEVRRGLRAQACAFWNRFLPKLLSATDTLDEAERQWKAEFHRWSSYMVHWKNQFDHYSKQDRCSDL

`COc1cc2c(cc1O)CCC(C)(CC(=O)NCCCCCCCCNc1c3c(nc4cc(Cl)ccc14)CCCC3)O2` (stereo not drawn): in [1], the IC50 amounted to 3.69 nM. The Activity entry in series [2] is “Non-Toxic”; in series [9] it was “Toxic”; in [12] it was “Non-Toxic”. Besides, in [3], the result was Active. This molecule also had a half-life at 5 µM in [4] of 50.5 min. The result in series [5], in series [7], in series [10] and in [13] was inactive. Also, the Drug metabolism entry in series [6], in series [14], in series [17] and in series [18] was “Metabolite_Detected” each time. Further, the values for the remaining at 1 h, 5 µM in [8] and in series [15] were 36.5% and 55.2%, respectively. Besides, the remaining at 3 h, 10 µM in series [11] came out at 100%. Further, the remaining at 0 min, 10 µM in series [16] was found to be 100%.

One may read the IC50 as the midpoint of a concentration-inhibition curve. As a reminder, the half-life is how long it takes for the measured level to halve.

For the origin of these results see ChEMBL document CHEMBL4725294, “Centrally Active Multitarget Anti-Alzheimer Agents Derived from the Antioxidant Lead CR-6” (J Med Chem, 2020).
